Laboratory results published in PubChem BioAssay (NCI).
Values joined by “and” are separate entries in the source; they are usually repeats but may differ in a detail not shown here. Identical values can stand only once.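 Interpolation was linear, between the two tested concentrations surrounding the appropriate level; five concentrations were tested over 48 hours in 96-well plates. GI50 = concentration required for 50% inhibition of growth. Definition used: TGI = concentration required for complete inhibition of growth.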

Legend:
Test in all cases: NCI-60 cell line screen, 48 h
ACHN renal = tested on: ACHN renal
HCT-116 colon = tested on: HCT-116 colon
HL-60(TB) leukemia = tested on: HL-60(TB) leukemia
MOLT-4 leukemia = tested on: MOLT-4 leukemia
NCI-H23 lung = tested on: NCI-H23 lung
NCI-H522 lung = tested on: NCI-H522 lung
RPMI-8226 leukemia = tested on: RPMI-8226 leukemia
SR leukemia = tested on: SR leukemia
SW-620 colon = tested on: SW-620 colon
MDA-MB-231 breast = tested on: MDA-MB-231 breast

C=Cc1cncc(C#N)c1CCc1c(C#N)cncc1C=C
GI50 (ACHN renal): > 100 µM | TGI (ACHN renal): > 100 µM | GI50 (HCT-116 colon): > 100 µM | TGI (HCT-116 colon): > 100 µM | GI50 (HL-60(TB) leukemia): > 100 µM | TGI (HL-60(TB) leukemia): > 100 µM | GI50 (MOLT-4 leukemia): > 100 µM | TGI (MOLT-4 leukemia): > 100 µM | GI50 (NCI-H23 lung): > 100 µM | TGI (NCI-H23 lung): > 100 µM | GI50 (NCI-H522 lung): > 100 µM | TGI (NCI-H522 lung): > 100 µM | GI50 (RPMI-8226 leukemia): > 100 µM | TGI (RPMI-8226 leukemia): > 100 µM | TGI (SR leukemia): > 10 µM | GI50 (SW-620 colon): > 100 µM | TGI (SW-620 colon): > 100 µM

COc1ccc2c(CN3CCCC[C@H]3C(=O)O)cc3cc4c(cc3c2c1)OCO4
GI50 (ACHN renal): 0.46 µM | TGI (ACHN renal): 2.43 µM | GI50 (MDA-MB-231 breast): 0.799 µM | TGI (MDA-MB-231 breast): 3.59 µM | GI50 (MOLT-4 leukemia): 0.278 µM | TGI (MOLT-4 leukemia): 2.3 µM | GI50 (NCI-H23 lung): 3.25 µM | TGI (NCI-H23 lung): > 100 µM | GI50 (RPMI-8226 leukemia): 2.57 µM | TGI (RPMI-8226 leukemia): 7.24 µM | GI50 (SW-620 colon): 0.37 µM | TGI (SW-620 colon): 1.79 µM

C[C@H](OCc1ccccc1)C(=O)N1CCS(=O)(=O)N2CCC[C@@H]2C1=O
TGI (ACHN renal): > 100 µM | TGI (HCT-116 colon): > 100 µM | TGI (HL-60(TB) leukemia): > 100 µM | TGI (MOLT-4 leukemia): > 100 µM | TGI (NCI-H23 lung): > 100 µM | TGI (NCI-H522 lung): > 100 µM | TGI (RPMI-8226 leukemia): > 100 µM | TGI (SR leukemia): > 100 µM | TGI (SW-620 colon): > 100 µM

COc1ccc(/C=C/c2cc(OC)c(OC)c(OC)c2)cc1
TGI (ACHN renal): > 100 µM | TGI (HCT-116 colon): > 77.2 µM | TGI (MOLT-4 leukemia): > 100 µM | TGI (NCI-H23 lung): > 81.5 µM | GI50 (NCI-H522 lung): 14.1 µM | TGI (NCI-H522 lung): 40.9 µM | TGI (RPMI-8226 leukemia): 12.3 µM | TGI (SW-620 colon): > 100 µM

CCOC(=O)/C(C1=NCCN1)=C(\O)c1ccccc1
TGI (ACHN renal): > 100 µM | TGI (HCT-116 colon): > 100 µM | TGI (HL-60(TB) leukemia): > 100 µM | TGI (MOLT-4 leukemia): > 100 µM | TGI (NCI-H23 lung): > 100 µM | TGI (NCI-H522 lung): > 100 µM | TGI (RPMI-8226 leukemia): > 100 µM | TGI (SR leukemia): > 100 µM | TGI (SW-620 colon): > 100 µM

OC1(C23CC4CC(CC(C4)C2)C3)CSCC1(O)C12CC3CC(CC(C3)C1)C2 (stereo not given)
TGI (HCT-116 colon): > 100 µM | TGI (HL-60(TB) leukemia): > 10 µM | TGI (MOLT-4 leukemia): > 10 µM | TGI (NCI-H23 lung): > 100 µM | TGI (NCI-H522 lung): > 100 µM | TGI (RPMI-8226 leukemia): > 100 µM | TGI (SR leukemia): > 100 µM | TGI (SW-620 colon): > 100 µM

CCCCCCCCCCCCCCCC(=O)OCC1OC(n2cc(F)c(=O)[nH]c2=O)C(N)C(O)C1O (stereo not given)
TGI (ACHN renal): 33.9 µM | TGI (HCT-116 colon): 34.4 µM | TGI (HL-60(TB) leukemia): 37.4 µM | TGI (MOLT-4 leukemia): 40.7 µM | TGI (NCI-H23 lung): 39.3 µM | TGI (NCI-H522 lung): 31.7 µM | TGI (RPMI-8226 leukemia): 51.3 µM | TGI (SW-620 colon): 30.4 µM

Cc1ccccc1C1OC(=O)c2ccc3ccccc3c21 (stereo not given)
TGI (ACHN renal): 28.6 µM | TGI (HCT-116 colon): 7.14 µM | TGI (HL-60(TB) leukemia): 8.01 µM | TGI (MOLT-4 leukemia): 7.18 µM | TGI (NCI-H23 lung): 20.7 µM | TGI (NCI-H522 lung): 4.89 µM | TGI (RPMI-8226 leukemia): 5.43 µM | TGI (SR leukemia): 7.96 µM | TGI (SW-620 colon): 21.7 µM

CCCCCCC[CH2][Sn]([CH2]CCCCCCC)([O]c1cccc2cccnc12)[O]c1cccc2cccnc12
GI50 (ACHN renal): 2.98 µM | TGI (ACHN renal): 11.1 µM | GI50 (HCT-116 colon): 2.37 µM | TGI (HCT-116 colon): 10.1 µM | GI50 (MOLT-4 leukemia): 0.595 µM | TGI (MOLT-4 leukemia): 3.81 µM | GI50 (NCI-H522 lung): 0.605 µM | TGI (NCI-H522 lung): 3.86 µM | GI50 (RPMI-8226 leukemia): 0.625 µM | TGI (RPMI-8226 leukemia): 2.84 µM | GI50 (SW-620 colon): 0.391 µM | TGI (SW-620 colon): 1.89 µM

Cc1cn(C2CC3C(COCN3O)O2)c(=O)[nH]c1=O (stereo not given)
TGI (ACHN renal): > 100 µM | TGI (HCT-116 colon): > 100 µM | TGI (HL-60(TB) leukemia): > 100 µM | TGI (MOLT-4 leukemia): > 100 µM | TGI (NCI-H23 lung): > 100 µM | TGI (RPMI-8226 leukemia): > 100 µM | TGI (SR leukemia): > 100 µM | TGI (SW-620 colon): > 100 µM

COc1ccc2c(c1)C(=O)c1ccc(OC)cc1C2=S
TGI (ACHN renal): > 100 µM | TGI (HCT-116 colon): > 100 µM | TGI (HL-60(TB) leukemia): > 100 µM | TGI (MOLT-4 leukemia): > 100 µM | TGI (NCI-H23 lung): > 100 µM | TGI (NCI-H522 lung): > 100 µM | TGI (RPMI-8226 leukemia): > 100 µM | TGI (SR leukemia): > 100 µM | TGI (SW-620 colon): > 100 µM

C=CCN=C(N/N=C/c1ccc([N+](=O)[O-])o1)NS(=O)(=O)c1cc(C(=O)Nc2ccc(Cl)cc2)c(Cl)cc1SC
GI50 (ACHN renal): 3.55 µM | TGI (ACHN renal): > 50.1 µM | GI50 (HCT-116 colon): 0.935 µM | TGI (HCT-116 colon): 4.04 µM | GI50 (HL-60(TB) leukemia): 1.05 µM | TGI (HL-60(TB) leukemia): 8.09 µM | TGI (MOLT-4 leukemia): > 39.5 µM | GI50 (NCI-H23 lung): > 62.7 µM | TGI (NCI-H23 lung): > 100 µM | GI50 (NCI-H522 lung): > 58.8 µM | TGI (NCI-H522 lung): > 100 µM | GI50 (RPMI-8226 leukemia): 0.504 µM | GI50 (SR leukemia): 1.28 µM | TGI (SR leukemia): > 23.6 µM | GI50 (SW-620 colon): 1.02 µM | TGI (SW-620 colon): > 100 µM

C[C@@]12CCC(=O)c3coc(c31)C(=O)c1cc3c(cc12)C(=O)C=CC3=O
GI50 (ACHN renal): > 1 µM | TGI (ACHN renal): > 1 µM and 30.3 µM | GI50 (HCT-116 colon): > 1 µM | TGI (HCT-116 colon): > 1 µM and 28.7 µM | GI50 (HL-60(TB) leukemia): > 1 µM | TGI (HL-60(TB) leukemia): > 1 µM and 5.5 µM | GI50 (MOLT-4 leukemia): > 1 µM | TGI (MOLT-4 leukemia): > 100 µM | TGI (NCI-H23 lung): 26.2 µM | GI50 (NCI-H522 lung): > 1 µM | TGI (NCI-H522 lung): > 1 µM and 22.1 µM | GI50 (RPMI-8226 leukemia): > 1 µM | TGI (RPMI-8226 leukemia): > 100 µM | GI50 (SR leukemia): > 1 µM | TGI (SR leukemia): > 71.2 µM | GI50 (SW-620 colon): > 1 µM | TGI (SW-620 colon): > 1 µM and 35.7 µM

COc1cc2ccnc3c2c(c1OC)-c1coc(SC)c1-3
TGI (ACHN renal): > 100 µM | TGI (HCT-116 colon): > 100 µM | TGI (HL-60(TB) leukemia): > 100 µM | TGI (MOLT-4 leukemia): > 100 µM | TGI (NCI-H522 lung): > 100 µM | TGI (RPMI-8226 leukemia): > 100 µM | TGI (SR leukemia): > 100 µM | TGI (SW-620 colon): > 100 µM
